Tests used:
AMARE [1] = assay: Pre-emergence herbicidal action against AMARE; assay type: in vivo, Amaranthus retroflexus
Description: (§1) Seeds of monocotyledonous and dicotyledonous weed plants and crop plants are laid out in sandy loam soil in wood-fiber pots and covered with soil. The compounds of the invention, formulated in the form of wettable powders (WP) or as emulsion concentrates (EC), are then applied to the surface of the covering soil in the form of an aqueous suspension or emulsion at a water application rate equivalent to 600 to 800 l/ha, with addition of 0.2% wetting agent. After the treatment, the pots are placed in a greenhouse and kept under good growth conditions for the trial plants. The damage to the test plants is scored visually after a test period of 3 weeks by comparison with untreated controls (herbicidal activity in percent (%): 100% activity=the plants have died, 0% activity=like control plants). […] The tables below illustrate, in an illustrative manner, the post-emergence herbicidal action of the compounds of the invention, the herbicidal activity being stated in percent.

VIOTR [2] = assay: Pre-emergence herbicidal action against VIOTR; assay type: in vivo, Viola tricolor
Description: as §1

AMARE [3] = assay: Post-emergence herbicidal action against AMARE; assay type: in vivo, Amaranthus retroflexus; settings: 20 g/ha, visual assessment about 3 weeks after treatment, 100% = plants have died, 0% = like control plants
Method: (§2) Seeds of monocotyledonous and dicotyledonous weed and crop plants are laid out in sandy loam soil in wood-fiber pots, covered with soil and cultivated in a greenhouse under good growth conditions. 2 to 3 weeks after sowing, the test plants are treated at the one-leaf stage. The compounds of the invention, formulated in the form of wettable powders (WP) or as emulsion concentrates (EC), are then sprayed onto the green parts of the plants in the form of an aqueous suspension or emulsion at a water application rate equivalent to 600 to 800 l/ha, with addition of 0.2% wetting agent. After the test plants have been left to stand in the greenhouse under optimal growth conditions for about 3 weeks, the action of the preparations is assessed visually in comparison to untreated controls (herbicidal action in percent (%): 100% activity=the plants have died, 0% activity=like control plants). […] The tables below illustrate, in an illustrative manner, the post-emergence herbicidal action of the compounds of the invention, the herbicidal activity being stated in percent.

VIOTR [4] = assay: Post-emergence herbicidal action against VIOTR; assay type: in vivo, Viola tricolor
Method: as §2

ALOMY = assay: Pre-emergence herbicidal action against ALOMY; assay type: in vivo, Alopecurus myosuroides; settings: 80 g/ha, pre-emergence, scored visually after 3 weeks vs untreated controls (100% = plants have died, 0% = like control plants)
Description: as §1

ECHCG [5] = assay: Pre-emergence herbicidal action against ECHCG; assay type: in vivo, Echinochloa crus-galli; settings: 80 g/ha
Description: as §1

MATIN = assay: Pre-emergence herbicidal action against MATIN; assay type: in vivo, Matricaria inodora
Description: as §1

SETVI [6] = assay: Pre-emergence herbicidal action against SETVI; assay type: in vivo, Setaria viridis
Description: as §1

ECHCG [7] = assay: Post-emergence herbicidal action against ECHCG; assay type: in vivo, Echinochloa crus-galli; settings: dosage 20 g/ha
Method: as §2

PHBPU = assay: Post-emergence herbicidal action against PHBPU; assay type: in vivo, Pharbitis purpurea; settings: dosage 20 g/ha
Method: as §2

ABUTH [8] = assay: Pre-emergence herbicidal action against ABUTH; assay type: in vivo, Abutilon theophrasti; settings: for Pre-emergence action against ABUTH (herbicidal activity): 80 g/ha, scored visually after 3 weeks vs untreated controls (100% = plants have died, 0% = like control plants); for Pre-emergence action against ABUTH (herbicidal activity in percent): dosage 20 g/ha, scored visually after 3 weeks vs untreated controls, 100% = plants have died, 0% = like control plants
Description: as §1

DIGSA [9] = assay: Pre-emergence herbicidal action against DIGSA; assay type: in vivo, Digitaria sanguinalis
Description: as §1

SETVI [10] = assay: Post-emergence herbicidal action against SETVI; assay type: in vivo, Setaria viridis; settings: dosage 20 g/ha
Method: as §2

DIGSA [11] = assay: Post-emergence herbicidal action against DIGSA; assay type: in vivo, Digitaria sanguinalis; settings: for Post-emergence action against DIGSA in %: 5 g/ha; for Post-emergence action against DIGSA: 20 g/ha
Method: as §2

ABUTH [12] = assay: Post-emergence herbicidal action against ABUTH; assay type: in vivo, Abutilon theophrasti; settings: dosage 20 g/ha, visual assessment about 3 weeks after treatment vs untreated controls
Method: as §2

[13] = 80 g/ha, scored visually after 3 weeks vs untreated controls (100% = plants have died, 0% = like control plants)
[14] = 20 g/ha, scored visually after 3 weeks vs untreated controls, 100% = plants have died, 0% = like control plants

Row | SMILES | Pre-emergence action against AMARE in % (AMARE [1]; [13]) | Post-emergence action at 20 g/ha against AMARE in % (AMARE [3]) | Pre-emergence action against AMARE in % (AMARE [1]; [14]) | Pre-emergence action against ECHCG in % (ECHCG [5]) | Pre-emergence action against MATIN in % (MATIN; dosage 80 g/ha) | Pre-emergence action against SETVI in % (SETVI [6]; dosage 80 g/ha) | Post-emergence action against ECHCG in % (ECHCG [7]) | Pre-emergence action against ABUTH (herbicidal activity) (ABUTH [8]) | Pre-emergence action against DIGSA in % (DIGSA [9]; dosage 80 g/ha) | further results
1 | Cn1nnnc1NC(=O)c1ccc(C(F)(F)F)c(C(=O)NCC#N)c1Cl [Example 1-140] | 100% | 80% |  |  |  |  |  |  |  | Pre-emergence action against VIOTR in % (VIOTR [2]; dosage 80 g/ha): 90%; Post-emergence action against VIOTR in % (VIOTR [4]; 20 g/ha): 80%
2 | Cn1nnnc1NC(=O)c1ccc(C(F)F)c(C(=O)NCc2cccs2)c1Cl [Example 1-162] | 100% | 90% | 90% | 100% | 90% | 80% | 80% |  |  | Pre-emergence action against ALOMY (herbicidal activity) (ALOMY): 90%; Post-emergence action against PHBPU in % (PHBPU): 80%
3 | CCn1nnnc1NC(=O)c1ccc(C(F)F)c(C(=O)NCCSC)c1Cl [Example 2-157] | 90% | 90% |  |  |  |  |  |  |  | 
4 | CCn1nnnc1NC(=O)c1ccc(C(F)F)c(C(=O)NCc2cccs2)c1Cl [Example 2-162] | 100% | 100% | 90% | 80% | 90% |  |  |  |  | Pre-emergence action against VIOTR in % (VIOTR [2]; dosage 80 g/ha): 80%
5 | N#CCNC(=O)c1c(C(F)(F)F)ccc(C(=O)Nc2nnco2)c1Cl [Example 5-254] | 100% | 80% |  |  |  |  |  | 100% |  | Pre-emergence action against VIOTR in % (VIOTR [2]; dosage 80 g/ha): 90%
6 | CNC(=O)c1c(C(F)(F)F)ccc(C(=O)Nc2nnc(C)o2)c1OC [Example 6-43] | 100% |  |  | 100% | 80% | 90% |  | 100% | 100% | Post-emergence action against SETVI in % (SETVI [10]): 90%; Post-emergence action against DIGSA in % (DIGSA [11]): 90%; Post-emergence action against DIGSA (DIGSA [11]): 100%
7 | CCNC(=O)c1c(C(F)(F)F)ccc(C(=O)Nc2nnc(C)o2)c1OC [Example 6-44] | 100% | 90% | 80% | 100% | 80% | 90% | 90% |  |  | Post-emergence action against ABUTH in % (ABUTH [12]): 80%; Post-emergence action against SETVI in % (SETVI [10]): 80%; Post-emergence action against DIGSA in % (DIGSA [11]): 80%; Post-emergence action against DIGSA (DIGSA [11]): 90%
8 | CSc1c(C(=O)Nc2nnc(C)o2)ccc(C(F)(F)F)c1C(=O)NC1CC1 [Example 6-60] | 100% | 100% |  | 80% | 90% |  | 90% | 90% |  | Post-emergence action against ABUTH in % (ABUTH [12]): 90%
9 | CCNC(=O)c1c(C(F)F)ccc(C(=O)Nc2nnc(C)o2)c1SC [Example 6-75] |  |  |  |  |  |  |  |  | 80% | Post-emergence action against DIGSA (DIGSA [11]): 90%
10 | CSc1c(C(=O)Nc2nnc(C)o2)ccc(C(F)F)c1C(=O)NC1CC1 [Example 6-76] | 100% | 100% |  |  | 90% | 80% | 80% |  |  | Post-emergence action against SETVI in % (SETVI [10]): 80%
11 | Cc1nnc(NC(=O)c2ccc(C(F)F)c(C(=O)NCC3CC3)c2Br)o1 [Example 6-167] | 100% | 100% | 100% | 100% | 90% | 80% | 80% | 100% | 90% | Pre-emergence action against ABUTH (herbicidal activity in percent) (ABUTH [8]): 90%; Pre-emergence action against SETVI in % (SETVI [6]; dosage 20 g/ha): 80%; Pre-emergence action against VIOTR in % (VIOTR [2]; dosage 20 g/ha): 90%; Pre-emergence action against VIOTR in % (VIOTR [2]; dosage 80 g/ha): 100%
12 | Cc1nnc(NC(=O)c2ccc(C(F)(F)F)c(C(=O)NCC(F)F)c2C2CC2)o1 [Example 6-230] | 100% | 90% | 100% | 80% | 80% |  |  | 90% | 80% | Post-emergence action against PHBPU in % (PHBPU): 80%
13 | CNC(=O)c1c(C(F)F)ccc(C(=O)Nc2nnc(C)o2)c1C1CC1 [Example 6-231] | 100% | 90% |  |  | 80% |  |  |  | 90% | Pre-emergence action against DIGSA in % (DIGSA [9]; dosage 20 g/ha): 80%; Post-emergence action against VIOTR in % (VIOTR [4]; 5 g/ha): 90%; Post-emergence action against VIOTR in % (VIOTR [4]; 20 g/ha): 90%
14 | Cc1nnc(NC(=O)c2ccc(C(F)F)c(C(=O)NC3CCC3)c2Cl)o1 [Example 6-261] | 100% | 90% | 100% | 100% | 100% | 100% | 90% | 100% | 100% | Pre-emergence action against ABUTH (herbicidal activity in percent) (ABUTH [8]): 80%; Pre-emergence action against MATIN in % (MATIN; dosage 20 g/ha): 90%; Pre-emergence action against DIGSA in % (DIGSA [9]; dosage 20 g/ha): 80%; Post-emergence action against ABUTH in % (ABUTH [12]): 80%; Post-emergence action against DIGSA (DIGSA [11]): 90%
15 | Cc1nnc(NC(=O)c2ccc(C(F)F)c(C(=O)Nc3ccccc3)c2Cl)o1 [Example 6-266] | 100% | 100% | 90% |  | 80% |  |  | 80% |  | Post-emergence action against PHBPU in % (PHBPU): 80%

— patent publication US12655116B2, “Substituted isophthalic acid diamides” (Bayer Aktiengesellschaft, priority 2020, dated 2026)
